In patent US20240150334A1, “HSD17B13 INHIBITORS AND/OR DEGRADERS” (Pfizer Inc., priority 2022, published 2024):

Assays:
HSD17B13 enzyme = HSD17B13 enzyme (Homo sapiens (Human), UniProt Q7Z5P4); experiment: hHSD17B13 IC50 Assay (FAC beta-estradiol), purified protein enzyme activity assay with NAD(P)H-Glo luciferase readout; format: biochemical; conditions: geometric mean, 12 μM FAC beta-estradiol, 500 μM NAD+, read-out: hHSD17B13_IC50 GMean IC50
Procedure, shortened: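 Purified human HSD17B13 (30 nM FAC) incubated with compound, beta-estradiol and NAD+ for 2 h at room temperature in the dark. NADH formation was detected by NAD(P)H-Glo luminescence after 1 h. RLUs normalized to uninhibited enzyme (vehicle) as zero effect.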

wild type human HSD17B13 = wild type human HSD17B13 (Homo sapiens (Human), UniProt Q7Z5P4); experiment: HEK_Beta-Est LCMS_IC50_Tekcel, whole-cell HEK-HSD17B13 inhibition assay, estrone production by LCMS; format: cell-based; conditions: geometric mean, HEK cells stably expressing wild type human HSD17B13, 25 μM FAC beta-estradiol, read-out: HEK_Beta-Est LCMS_IC50—Tekcel GMean IC50
Procedure, shortened: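 HEK cells expressing wild-type human HSD17B13 were preincubated with compound for 1 hour at 37° C, then the beta-estradiol/NAD+ reaction ran for 2 hours at 37° C. Estrone formed was quantified by LCMS as product area ratio and normalized to uninhibited vehicle-control wells.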

wild type human HSD17B13, sequence (Q7Z5P4 20-300): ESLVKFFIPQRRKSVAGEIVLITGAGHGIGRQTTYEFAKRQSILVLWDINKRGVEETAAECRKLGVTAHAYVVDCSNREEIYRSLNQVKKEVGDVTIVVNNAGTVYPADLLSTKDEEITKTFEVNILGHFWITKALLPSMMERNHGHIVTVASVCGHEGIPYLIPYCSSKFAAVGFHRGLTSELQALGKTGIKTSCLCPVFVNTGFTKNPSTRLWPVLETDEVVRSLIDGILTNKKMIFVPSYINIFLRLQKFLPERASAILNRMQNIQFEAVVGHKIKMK
HSD17B13 enzyme, sequence (Q7Z5P4 20-300): as above

IC50 (HSD17B13 enzyme) [nM] | IC50 (wild type human HSD17B13) [nM] | Structure (SMILES)
9.5 | 230 | O=C(NC[C@H]1CC[C@H](n2cc3ccc(-c4ncc(C5CC5)cn4)cc3n2)CC1)c1cc(F)c(O)c(F)c1 [Example 54, N-({(1r,4r)-4-[6-(5-cyclopropylpyrimidin-2-yl)-2H-indazol-2-yl]cyclohexyl}methyl)-3,5-difluoro-4-hydroxybenzamide]
17 | 230 | N#Cc1cccc(-c2ccc3cn([C@H]4CC[C@H](CNC(=O)c5cc(F)c(O)c(F)c5)CC4)nc3c2)c1 [Example 55, N-({(1r,4r)-4-[6-(3-cyanophenyl)-2H-indazol-2-yl]cyclohexyl}methyl)-3,5-difluoro-4-hydroxybenzamide]
26 | 310 | Cc1ccc(-c2ccc3cn([C@H]4CC[C@H](CNC(=O)c5cc(F)c(O)c(F)c5)CC4)nc3c2)nc1 [Example 57, 3,5-difluoro-4-hydroxy-N-({(1r,4r)-4-[6-(5-methylpyridin-2-yl)-2H-indazol-2-yl]cyclohexyl}methyl) benzamide]
25 | 280 | O=C(NC[C@H]1CC[C@H](n2cc3ccc(-c4ncc(CO)cn4)cc3n2)CC1)c1cc(F)c(O)c(F)c1 [Example 58, 3,5-difluoro-4-hydroxy-N-{[(1r,4r)-4-{6-[5-(hydroxymethyl)pyrimidin-2-yl]-2H-indazol-2-yl}cyclohexyl]methyl} benzamide]
11 | 470 | CC(C)(O)c1cncc(-c2ccc3cn([C@H]4CC[C@H](CNC(=O)c5cc(F)c(O)c(F)c5)CC4)nc3c2)c1 [Example 59, 3,5-difluoro-4-hydroxy-N-{[(1r,4r)-4-{6-[5-(2-hydroxypropan-2-yl)pyridin-3-yl]-2H-indazol-2-yl}cyclohexyl]methyl}benzamide]
5.8 | 94 | Cn1cc(-c2ccc3cn([C@H]4CC[C@H](CNC(=O)c5cc(F)c(O)c(F)c5)CC4)nc3c2)cn1 [Example 60, 3,5-difluoro-4-hydroxy-N-({(1r,4r)-4-[6-(1-methyl-1H-pyrazol-4-yl)-2H-indazol-2-yl]cyclohexyl}methyl) benzamide]
4.8 | 120 | O=C(NC[C@H]1CC[C@H](n2cc3ccc(-c4ccncc4)cc3n2)CC1)c1cc(F)c(O)c(F)c1 [Example 61, 3,5-difluoro-4-hydroxy-N-({(1r,4r)-4-[6-(pyridin-4-yl)-2H-indazol-2-yl]cyclohexyl}methyl)benzamide]
8.7 | 350 | Cn1nccc1-c1ccc2cn([C@H]3CC[C@H](CNC(=O)c4cc(F)c(O)c(F)c4)CC3)nc2c1 [Example 62, 3,5-difluoro-4-hydroxy-N-({(1r,4r)-4-[6-(1-methyl-1H-pyrazol-5-yl)-2H-indazol-2-yl]cyclohexyl}methyl) benzamide]
11 | 370 | Cc1ccc(-c2ccc3cn([C@H]4CC[C@H](CNC(=O)c5cc(F)c(O)c(F)c5)CC4)nc3c2)nn1 [Example 63, 3,5-difluoro-4-hydroxy-N-({(1r,4r)-4-[6-(6-methylpyridazin-3-yl)-2H-indazol-2-yl]cyclohexyl}methyl) benzamide]
5.6 | 350 | COc1cccc(-c2ccc3cn([C@H]4CC[C@H](CNC(=O)c5cc(F)c(O)c(F)c5)CC4)nc3c2)c1 [Example 64, 3,5-difluoro-4-hydroxy-N-({(1r,4r)-4-[6-(3-methoxyphenyl)-2H-indazol-2-yl]cyclohexyl}methyl) benzamide]
13 | 170 | O=C(NC[C@H]1CC[C@H](n2cc3ccc(-c4cnccn4)cc3n2)CC1)c1cc(F)c(O)c(F)c1 [Example 65, 3,5-difluoro-4-hydroxy-N-({(1r,4r)-4-[6-(pyrazin-2-yl)-2H-indazol-2-yl]cyclohexyl}methyl) benzamide]
7.5 | 180 | COc1cnc(-c2ccc3cn([C@H]4CC[C@H](CNC(=O)c5cc(F)c(O)c(F)c5)CC4)nc3c2)nc1 [Example 66, 3,5-difluoro-4-hydroxy-N-({(1r,4r)-4-[6-(5-methoxypyrimidin-2-yl)-2H-indazol-2-yl]cyclohexyl}methyl) benzamide]
31 | 270 | COc1ccc(-c2ccc3cn([C@H]4CC[C@H](CNC(=O)c5cc(F)c(O)c(F)c5)CC4)nc3c2)cc1 [Example 67, 3,5-difluoro-4-hydroxy-N-({(1r,4r)-4-[6-(4-methoxyphenyl)-2H-indazol-2-yl]cyclohexyl}methyl) benzamide]
7.8 | 270 | O=C(NC[C@H]1CC[C@H](n2cc3ccc(-c4ccccc4)cc3n2)CC1)c1cc(F)c(O)c(F)c1 [Example 68, 3,5-difluoro-4-hydroxy-N-{[(1r,4r)-4-(6-phenyl-2H-indazol-2-yl)cyclohexyl]methyl} benzamide]
8.4 | 130 | O=C(NC[C@H]1CC[C@H](n2cc3ccc(-c4cscn4)cc3n2)CC1)c1cc(F)c(O)c(F)c1 [Example 69, 3,5-difluoro-4-hydroxy-N-({(1r,4r)-4-[6-(1,3-thiazol-4-yl)-2H-indazol-2-yl]cyclohexyl}methyl) benzamide]
3.8 | 190 | N#Cc1ccc(-c2ccc3cn([C@H]4CC[C@H](CNC(=O)c5cc(F)c(O)c(F)c5)CC4)nc3c2)cc1 [Example 70, N-({(1r,4r)-4-[6-(4-cyanophenyl)-2H-indazol-2-yl]cyclohexyl}methyl)-3,5-difluoro-4-hydroxybenzamide]
9.6 | 430 | O=C(NC[C@H]1CC[C@H](n2cc3ccc(-c4ccnnc4)cc3n2)CC1)c1cc(F)c(O)c(F)c1 [Example 71, 3,5-difluoro-4-hydroxy-N-({(1r,4r)-4-[6-(pyridazin-4-yl)-2H-indazol-2-yl]cyclohexyl}methyl)benzamide]
7.8 | 170 | O=C(NC[C@H]1CC[C@H](n2cc3ccc(-c4cccnc4)cc3n2)CC1)c1cc(F)c(O)c(F)c1 [Example 72, 3,5-difluoro-4-hydroxy-N-({(1r,4r)-4-[6-(pyridin-3-yl)-2H-indazol-2-yl]cyclohexyl}methyl) benzamide]
13 | 170 | COc1ncc(-c2ccc3cn([C@H]4CC[C@H](CNC(=O)c5cc(F)c(O)c(F)c5)CC4)nc3c2)cn1 [Example 73, 3,5-difluoro-4-hydroxy-N-({(1r,4r)-4-[6-(2-methoxypyrimidin-5-yl)-2H-indazol-2-yl]cyclohexyl}methyl) benzamide]
12 | 170 | Cc1cnc(-c2ccc3cn([C@H]4CC[C@H](CNC(=O)c5cc(F)c(O)c(F)c5)CC4)nc3c2)nc1 [Example 74, 3,5-difluoro-4-hydroxy-N-({(1r,4r)-4-[6-(5-methylpyrimidin-2-yl)-2H-indazol-2-yl]cyclohexyl}methyl)benzamide]
19 | 210 | O=C(NC[C@H]1CC[C@H](n2cc3ccc(-c4ccccn4)cc3n2)CC1)c1cc(F)c(O)c(F)c1 [Example 75, 3,5-difluoro-4-hydroxy-N-({(1r,4r)-4-[6-(pyridin-2-yl)-2H-indazol-2-yl]cyclohexyl}methyl)benzamide]
19 | 190 | O=C(NC[C@H]1CC[C@H](n2cc3ccc(-c4cncnc4)cc3n2)CC1)c1cc(F)c(O)c(F)c1 [Example 76, 3,5-difluoro-4-hydroxy-N-({(1r,4r)-4-[6-(pyrimidin-5-yl)-2H-indazol-2-yl]cyclohexyl}methyl)benzamide]
